Source: patent publication US12521393B2, “Cytotoxicity targeting chimeras for CCR2-expressing cells” (GLAXOSMITHKLINE INTELLECTUAL PROPERTY DEVELOPMENT LIMITED, priority 2021, dated 2026)

Tests used:
[1] = biological target: human alpha1 nicotinic acetylcholine (nACh) receptor (Homo sapiens, UniProt P02708); assay: Nicotinic acetylcholine receptor antagonism assay, IONFlux automated patch clamp (Example 203); format: cell-based; conditions: for IC50: antagonism of ACh-stimulated human alpha1 nAChR current, patch clamp; for Emax at 10 µM: maximum percentage antagonism at maximum concentration tested 10 μM; for Emax at 100 µM: maximum percentage antagonism at maximum concentration tested 100 μM
Chain of human alpha1 nicotinic acetylcholine (nACh) receptor (P02708 21-457): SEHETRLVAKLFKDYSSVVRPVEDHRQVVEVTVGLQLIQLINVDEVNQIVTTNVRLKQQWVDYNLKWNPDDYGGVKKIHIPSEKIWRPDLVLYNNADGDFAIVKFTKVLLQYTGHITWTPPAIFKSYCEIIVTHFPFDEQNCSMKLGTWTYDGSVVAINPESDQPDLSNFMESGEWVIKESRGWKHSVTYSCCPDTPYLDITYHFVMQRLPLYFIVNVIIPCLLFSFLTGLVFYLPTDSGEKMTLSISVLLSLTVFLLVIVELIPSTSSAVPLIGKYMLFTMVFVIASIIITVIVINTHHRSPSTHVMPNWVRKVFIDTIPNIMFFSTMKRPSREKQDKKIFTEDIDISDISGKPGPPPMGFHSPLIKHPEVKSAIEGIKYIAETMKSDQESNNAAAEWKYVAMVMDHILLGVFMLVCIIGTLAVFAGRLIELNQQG
Chain of human alpha1 nicotinic acetylcholine (nACh) receptor (P11230 24-501 partner): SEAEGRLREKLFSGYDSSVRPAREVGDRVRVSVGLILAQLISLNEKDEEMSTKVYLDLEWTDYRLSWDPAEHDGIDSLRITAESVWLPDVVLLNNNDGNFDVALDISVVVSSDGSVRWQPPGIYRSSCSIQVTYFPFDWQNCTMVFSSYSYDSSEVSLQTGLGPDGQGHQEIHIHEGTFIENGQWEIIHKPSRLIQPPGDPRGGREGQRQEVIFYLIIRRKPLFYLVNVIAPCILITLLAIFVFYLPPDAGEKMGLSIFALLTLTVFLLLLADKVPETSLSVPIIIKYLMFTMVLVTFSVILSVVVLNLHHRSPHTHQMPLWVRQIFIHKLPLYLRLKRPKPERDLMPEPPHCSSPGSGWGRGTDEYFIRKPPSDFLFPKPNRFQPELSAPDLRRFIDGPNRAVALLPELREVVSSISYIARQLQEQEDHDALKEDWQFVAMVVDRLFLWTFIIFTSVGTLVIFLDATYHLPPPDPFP
Chain of human alpha1 nicotinic acetylcholine (nACh) receptor (Q07001 22-517 partner): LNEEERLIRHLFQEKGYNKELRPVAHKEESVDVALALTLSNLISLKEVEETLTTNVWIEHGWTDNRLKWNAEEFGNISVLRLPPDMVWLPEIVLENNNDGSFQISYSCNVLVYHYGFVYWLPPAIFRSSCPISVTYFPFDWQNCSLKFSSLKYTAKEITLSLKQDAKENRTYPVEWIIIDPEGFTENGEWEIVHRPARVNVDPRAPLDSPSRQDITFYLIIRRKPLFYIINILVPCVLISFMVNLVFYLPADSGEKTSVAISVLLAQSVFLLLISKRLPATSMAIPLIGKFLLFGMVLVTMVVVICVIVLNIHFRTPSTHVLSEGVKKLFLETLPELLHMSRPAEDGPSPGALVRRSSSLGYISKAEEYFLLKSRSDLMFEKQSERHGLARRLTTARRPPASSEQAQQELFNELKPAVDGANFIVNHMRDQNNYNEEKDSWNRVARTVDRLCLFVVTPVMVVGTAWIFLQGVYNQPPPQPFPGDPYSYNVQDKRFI
How it was run: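 Cells expressing human α1 nAChR were incubated with a compound dose response (top 10 μM or 100 μM), then stimulated with ACh (10 mM), and peak current was read by automated patch clamp. % inhibition was taken against ACh-alone control, corrected for vehicle and run-down, and fit non-linearly for IC50; runs were averaged.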

[2] = test system: endogenous target monocytes in human PBMC; assay: PBMC ex vivo monocyte depletion flow cytometry assay (Example 200); format: cell-based; conditions: with anti-cotinine antibody (SEQ ID NO: 11/12), 18-24 hours, EC50 in molar, read-out: Ex Vivo Depletion Assay pEC50 (converted)
How it was run: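 Monocyte depletion is reported as pEC50, averaged or given individually across runs, and read by flow cytometry staining CD45, CD14 and CD4 with a viability dye. Compounds, diluted four-fold over 11 points from 1 mM DMSO stocks, were combined with 30 μg/mL Fc-enhanced anti-cotinine antibody and human PBMC, then incubated 18-24 h at 37° C.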

| Compound | IC50 [1] [nM] | Emax at 30 µM ([1]; maximum percentage antagonism at maximum concentration tested 30 μM, read-out: Maximum Response) [%] | EC50 [2] [nM] | Emax at 10 µM ([1]; read-out: Maximum Response) [%] | Emax at 100 µM ([1]; read-out: Maximum Response) [%] |
| --- | --- | --- | --- | --- | --- |
| CC(C)N(C)[C@@H]1CC[C@H](N2CC[C@H](Nc3ncnc4ccc(C(F)(F)F)cc34)C2=O)[C@H](NC(=O)[C@H]2CC[C@H](NC(=O)CCCOC[C@H]3CC[C@@H](COCCNC(=O)[C@H]4CC(=O)N(C)[C@@H]4c4cccnc4)CC3)CC2)C1 [Example 57, (2S,3S)-N-(2-(((1S,4R)-4-((4-(((1R,4R)-4-(((1R,2S,5R)-5-(Isopropyl(methyl)amino)-2-((S)-2-oxo-3-((6-(trifluoromethyl)quinazolin-4-yl)amino)pyrrolidin-1-yl)cyclohexyl)carbamoyl)cyclohexyl)amino)-4-oxobutoxy)methyl)cyclohexyl)methoxy)ethyl)-1-methyl-5-oxo-2-(pyridin-3-yl)pyrrolidine-3-carboxamide] | ≥ 30000 | 47.6 | 1.58 | – | – |
| CC(C)N(C)[C@@H]1CC[C@H](N2CC[C@H](Nc3ncnc4ccc(C(F)(F)F)cc34)C2=O)[C@H](NC(=O)[C@H]2CC[C@@H](CC(=O)CCCOC[C@H]3CC[C@H](COCCNC(=O)[C@H]4CC(=O)N(C)[C@@H]4c4cccnc4)CC3)CC2)C1 [Example 60, (2S,3S)-N-(2-(((1R,4S)-4-(((5-((1S,4S)-4-(((1R,2S,5R)-5-(Isopropyl(methyl)amino)-2-((S)-2-oxo-3-((6-(trifluoromethyl)quinazolin-4-yl)amino)pyrrolidin-1-yl)cyclohexyl)carbamoyl)cyclohexyl)-4-oxopentyl)oxy)methyl)cyclohexyl)methoxy)ethyl)-1-methyl-5-oxo-2-(pyridin-3-yl)pyrrolidine-3-carboxamide] | ≥ 10000 | – | 0.631 | 18.2 | – |
| CC(C)N(C)[C@@H]1CC[C@H](N2CC[C@H](Nc3ncnc4ccc(C(F)(F)F)cc34)C2=O)[C@H](NC(=O)CCNC(=O)CCCOC[C@H]2CC[C@@H](COCCNC(=O)[C@H]3CC(=O)N(C)[C@@H]3c3cccnc3)CC2)C1 [Example 62, (2S,3S)-N-(2-(((1S,4R)-4-((4-((3-(((1R,2S,5R)-5-(Isopropyl(methyl)amino)-2-((S)-2-oxo-3-((6-(trifluoromethyl)quinazolin-4-yl)amino)pyrrrolidin-1-yl)cyclohexyl)amino)-3-oxopropyl)amino)-4-oxobutoxy)methyl)cyclohexyl)methoxy)ethyl)-1-methyl-5-oxo-2-(pyridin-3-yl)pyrrolidine-3-carboxamide] | 29000 | – | 0.501 | – | 67.9 |
| CC(C)N(C)[C@@H]1CC[C@H](N2CC[C@H](Nc3ncnc4ccc(C(F)(F)F)cc34)C2=O)[C@H](NC(=O)[C@H]2CC[C@@H](NC(=O)CCOCCOCCNC(=O)CNC(=O)[C@H]3CC(=O)N(C)[C@@H]3c3cccnc3)CC2)C1 [Example 63, (2S,3S)-N-(2-((2-(2-(3-(((1S,4s)-4-(((1R,2S,5R)-5-(Isopropyl(methyl)amino)-2-((S)-2-oxo-3-((6-(trifluoromethyl)quinazolin-4-yl)amino)pyrrolidin-1-yl)cyclohexyl)carbamoyl)cyclohexyl)amino)-3-oxopropoxy)ethoxy)ethyl)amino)-2-oxoethyl)-1-methyl-5-oxo-2-(pyridin-3-yl)pyrrolidine-3-carboxamide] | 38500 | – | 0.631 | – | 76.6 |
| CC(C)N(C)[C@@H]1CC[C@H](N2CC[C@H](Nc3ncnc4ccc(C(F)(F)F)cc34)C2=O)[C@H](NC(=O)CCOCCOCCNC(=O)CCOCCOCCNC(=O)[C@H]2CC(=O)N(C)[C@@H]2c2cccnc2)C1 [Example 76, (2S,3S)-N-(19-(((1R,2S,5R)-5-(Isopropyl(methyl)amino)-2-((S)-2-oxo-3-((6-(trifluoromethyl)quinazolin-4-yl)amino)pyrrolidin-1-yl)cyclohexyl)amino)-9,19-dioxo-3,6,13,16-tetraoxa-10-azanonadecyl)-1-methyl-5-oxo-2-(pyridin-3-yl)pyrrolidine-3-carboxamide] | 32400 | – | 1.26 | – | 67.7 |
| CC(C)N(C)[C@@H]1CC[C@H](N2CC[C@H](Nc3ncnc4ccc(C(F)(F)F)cc34)C2=O)[C@H](NC(=O)[C@H]2CC[C@@H](NC(=O)COCCNC(=O)COCCNC(=O)[C@H]3CC(=O)N(C)[C@@H]3c3cccnc3)CC2)C1 [Example 99, (2S,3S)-N-(2-(2-((2-(2-(((1S,4s)-4-(((1R,2S,5R)-5-(Isopropyl(methyl)amino)-2-((S)-2-oxo-3-((6-(trifluoromethyl)quinazolin-4-yl)amino)pyrrolidin-1-yl)cyclohexyl)carbamoyl)cyclohexyl)amino)-2-oxoethoxy)ethyl)amino)-2-oxoethoxy)ethyl)-1-methyl-5-oxo-2-(pyridin-3-yl)pyrrolidine-3-carboxamide] | 33100 | – | 0.794 | – | 71.1 |
| CC(C)N(C)[C@@H]1CC[C@H](N2CC[C@H](Nc3ncnc4ccc(C(F)(F)F)cc34)C2=O)[C@H](NC(=O)CCOCCNC(=O)COCCNC(=O)COCCNC(=O)[C@H]2CC(=O)N(C)[C@@H]2c2cccnc2)C1 [Example 102, (2S,3S)-N-(18-(((1R,2S,5R)-5-(Isopropyl(methyl)amino)-2-((S)-2-oxo-3-((6-(trifluoromethyl)quinazolin-4-yl)amino)pyrrolidin-1-yl)cyclohexyl)amino)-5,11,18-trioxo-3,9,15-trioxa-6,12-diazaoctadecyl)-1-methyl-5-oxo-2-(pyridin-3-yl)pyrrolidine-3-carboxamide] | 66100 | – | 0.316 | – | 61.3 |
| CC(C)N(C)[C@@H]1CC[C@H](N2CC[C@H](Nc3ncnc4ccc(C(F)(F)F)cc34)C2=O)[C@H](NC(=O)CCOCCNC(=O)CCOCCNC(=O)COCCNC(=O)[C@H]2CC(=O)N(C)[C@@H]2c2cccnc2)C1 [Example 105, (2S,3S)-N-(19-(((1R,2S,5R)-5-(Isopropyl(methyl)amino)-2-((S)-2-oxo-3-((6-(trifluoromethyl)quinazolin-4-yl)amino)pyrrolidin-1-yl)cyclohexyl)amino)-5,12,19-trioxo-3,9,16-trioxa-6,13-diazanonadecyl)-1-methyl-5-oxo-2-(pyridin-3-yl)pyrrolidine-3-carboxamide] | 38900 | – | 0.398 | – | 75.7 |
| CC(C)N(C)[C@@H]1CC[C@H](N2CC[C@H](Nc3ncnc4ccc(C(F)(F)F)cc34)C2=O)[C@H](NC(=O)CCOCCNC(=O)[C@H]2CC[C@@H](NC(=O)COCCNC(=O)[C@H]3CC(=O)N(C)[C@@H]3c3cccnc3)CC2)C1 [Example 107, (2S,3S)-N-(2-(2-(((1S,4R)-4-((2-(3-(((1R,2S,5R)-5-(Isopropyl(methyl)amino)-2-((S)-2-oxo-3-((6-(trifluoromethyl)quinazolin-4-yl)amino)pyrrolidin-1-yl)cyclohexyl)amino)-3-oxopropoxy)ethyl)carbamoyl)cyclohexyl)amino)-2-oxoethoxy)ethyl)-1-methyl-5-oxo-2-(pyridin-3-yl)pyrrolidine-3-carboxamide] | ≥ 10000 | – | 0.2 | 12.2 | – |
| CC(C)N(C)[C@@H]1CC[C@H](N2CC[C@H](Nc3ncnc4ccc(C(F)(F)F)cc34)C2=O)[C@H](NC(=O)COCCNC(=O)COCCNC(=O)COCCNC(=O)[C@H]2CC(=O)N(C)[C@@H]2c2cccnc2)C1 [Example 111, (2S,3S)-N-(17-(((1R,2S,5R)-5-(Isopropyl(methyl)amino)-2-((S)-2-oxo-3-((6-(trifluoromethyl)quinazolin-4-yl)amino)pyrrolidin-1-yl)cyclohexyl)amino)-5,11,17-trioxo-3,9,15-trioxa-6,12-diazaheptadecyl)-1-methyl-5-oxo-2-(pyridin-3-yl)pyrrolidine-3-carboxamide] | 52900 | – | 5.01 | – | 67.6 |
| CC(C)N(C)[C@@H]1CC[C@H](N2CC[C@H](Nc3ncnc4ccc(C(F)(F)F)cc34)C2=O)[C@H](NC(=O)[C@H]2CC[C@@H](NC(=O)CCCOCCCCOCCNC(=O)[C@H]3CC(=O)N(C)[C@@H]3c3cccnc3)CC2)C1 [Example 122, (2S,3S)-N-(2-(4-(4-(((1S,4s)-4-(((1R,2S,5R)-5-(Isopropyl(methyl)amino)-2-((S)-2-oxo-3-((6-(trifluoromethyl)quinazolin-4-yl)amino)pyrrolidin-1-yl)cyclohexyl)carbamoyl)cyclohexyl)amino)-4-oxobutoxy)butoxy)ethyl)-1-methyl-5-oxo-2-(pyridin-3-yl)pyrrolidine-3-carboxamide] | ≥ 10000 | – | 0.794 | 23 | – |
| CC(C)N(C)[C@@H]1CC[C@H](N2CC[C@H](Nc3ncnc4ccc(C(F)(F)F)cc34)C2=O)[C@H](NC(=O)CNC(=O)[C@H]2CC[C@@H](NC(=O)CCOCCOCCNC(=O)[C@H]3CC(=O)N(C)[C@@H]3c3cccnc3)CC2)C1 [Example 137, (2S,3S)-N-(2-(2-(3-(((1S,4s)-4-((2-(((1R,2S,5R)-5-(Isopropyl(methyl)amino)-2-((S)-2-oxo-3-((6-(trifluoromethyl)quinazolin-4-yl)amino)pyrrolidin-1-yl)cyclohexyl)amino)-2-oxoethyl)carbamoyl)cyclohexyl)amino)-3-oxopropoxy)ethoxy)ethyl)-1-methyl-5-oxo-2-(pyridin-3-yl)pyrrolidine-3-carboxamide] | 70000 | – | 2 | – | 62 |
